Test results taken from patent publication US20140271606A1, “METHODS OF USING ADENOSINE RECEPTOR ANTAGONISTS FOR TREATING BLEEDING DISORDERS” (Bayer HealthCare LLC, priority 2013, published 2014).

Tests used:
Hemophilia A mice = assay: Tail cut blood loss in Hemophilia A mice; format: in vivo; conditions: 30 min bleeding
Experimental: In this Example, the effect of administering an adenosine receptor antagonist on reduction in blood loss in mice with Hemophilia A and Hemophilia B mice was analyzed. Male Hemophilia A or Hemophilia B mice, approximately eight to nine weeks of age and weighing, on average, approximately 25 grams, were used in this Example. The mice were anesthetized with isoflurane and the tails were placed in approximately 37-38° C. warmed 15-ml plastic tubes including 0.9% (by weight) saline for 10 minutes. The tails were then cut at 4 mm from the tip by scalpel and immediately placed back into separate pre-warmed (37-38° C.) 15-ml plastic tubes containing 10 ml of 0.9% (by weight) saline. Each mouse was allowed to bleed freely for 30 minutes. The adenosine 2a and 2b receptor antagonist, 4-(2-[7-Amino-2-(2-furyl)[1,2,4]triazolo[2,3-a][1,3,5]triazin-5-ylamino]ethyl)phenol (commercially available as ZM241385 from Tocris Bioscience, United Kingdom), was used in this Example. In a first sample group, ZM241385 was dissolved in 100% DMSO. In a second sample group, ZM241385 was dissolved in PEG400/ethanol/water (40/10/50 v/v/v). In a third sample group, ZM241385 was dissolved in PEG400/water (60/40 v/v). […] Blood loss was quantified gravimetrically by weighing the tubes before and after blood was collected.

Hemophilia B mice = assay: Tail cut blood loss in Hemophilia B mice; format: in vivo; conditions: 100 mg/kg intravenous in PEG400/water 60/40, 5 min prior to tail cut, 30 min bleeding, vs excipient (FIG. 4)
Experimental: In this Example, the effect of administering an adenosine receptor antagonist on reduction in blood loss in mice with Hemophilia A and Hemophilia B mice was analyzed. Male Hemophilia A or Hemophilia B mice, approximately eight to nine weeks of age and weighing, on average, approximately 25 grams, were used in this Example. The mice were anesthetized with isoflurane and the tails were placed in approximately 37-38° C. warmed 15-ml plastic tubes including 0.9% (by weight) saline for 10 minutes. The tails were then cut at 4 mm from the tip by scalpel and immediately placed back into separate pre-warmed (37-38° C.) 15-ml plastic tubes containing 10 ml of 0.9% (by weight) saline. Each mouse was allowed to bleed freely for 30 minutes. Nineteen mice having Hemophilia B were injected with the third sample of adenosine receptor antagonist solution by intravenous injection in the amount of 100 mg/kg ZM241385 five minutes prior to the tail cut. Nineteen control mice were treated with 100 μl of PEG400/water (60/40 v/v) without any adenosine receptor antagonist prior to the tail cut to serve as an untreated control. Blood loss was quantified gravimetrically by weighing the tubes before and after blood was collected.

Measured: blood loss

Nc1nc(NCCc2ccc(O)cc2)nc2nc(-c3ccco3)nn12 [ZM241385, 4-(2-[7-Amino-2-(2-furyl)[1,2,4]triazolo[2,3-a][1,3,5]triazin-5-ylamino]ethyl)phenol]
reduced blood loss: Hemophilia A mice; 100 mg/kg intraperitoneal in 100% DMSO, 30 min prior to tail cut, vs excipient (FIG. 2) | Hemophilia A mice; 300 mg/kg intraperitoneal in PEG400/ethanol/water 40/10/50, 30 min prior to tail cut, vs excipient (FIG. 3) | Hemophilia B mice
